Laboratory results published in PubChem BioAssay (NCI).
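Test compounds were applied to cells in 96-well plates for 48 hours at 5 doses. GI50 = concentration required for 50% inhibition of growth. Definition used: TGI = concentration required for complete inhibition of growth.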

Columns and labels:
Assay in all cases: DTP human tumour cell line panel, 48 h
786-0 renal = tested on: 786-0 renal
A498 renal = tested on: A498 renal
A549 NSCLC = tested on: A549 NSCLC
ACHN renal = tested on: ACHN renal
CAKI-1 renal = tested on: CAKI-1 renal
CCRF-CEM leukemia = tested on: CCRF-CEM leukemia
COLO 205 colon = tested on: COLO 205 colon
DLD-1 colon = tested on: DLD-1 colon
DMS 114 small cell lung = tested on: DMS 114 small cell lung
DMS 273 small cell lung = tested on: DMS 273 small cell lung
EKVX NSCLC = tested on: EKVX NSCLC
HCC-2998 colon = tested on: HCC-2998 colon
HCT-116 colon = tested on: HCT-116 colon
HCT-15 colon = tested on: HCT-15 colon
HL-60(TB) leukemia = tested on: HL-60(TB) leukemia
HOP-18 NSCLC = tested on: HOP-18 NSCLC
HOP-62 NSCLC = tested on: HOP-62 NSCLC
HOP-92 NSCLC = tested on: HOP-92 NSCLC
HT29 colon = tested on: HT29 colon
IGROV1 ovarian = tested on: IGROV1 ovarian
K-562 leukemia = tested on: K-562 leukemia
KM12 colon = tested on: KM12 colon
KM20L2 colon = tested on: KM20L2 colon
LOX IMVI melanoma = tested on: LOX IMVI melanoma
LXFL 529 NSCLC = tested on: LXFL 529 NSCLC
M14 melanoma = tested on: M14 melanoma
MALME-3M melanoma = tested on: MALME-3M melanoma
MOLT-4 leukemia = tested on: MOLT-4 leukemia
NCI-H226 lung = tested on: NCI-H226 lung
NCI-H23 lung = tested on: NCI-H23 lung
NCI-H460 lung = tested on: NCI-H460 lung
NCI-H522 lung = tested on: NCI-H522 lung
OVCAR-3 ovarian = tested on: OVCAR-3 ovarian
OVCAR-4 ovarian = tested on: OVCAR-4 ovarian
OVCAR-5 ovarian = tested on: OVCAR-5 ovarian
OVCAR-8 ovarian = tested on: OVCAR-8 ovarian
RPMI-8226 leukemia = tested on: RPMI-8226 leukemia
RXF 393 renal = tested on: RXF 393 renal
SF-268 CNS = tested on: SF-268 CNS
SF-295 CNS = tested on: SF-295 CNS
SF-539 CNS = tested on: SF-539 CNS
SK-MEL-2 melanoma = tested on: SK-MEL-2 melanoma
SK-MEL-28 melanoma = tested on: SK-MEL-28 melanoma
SK-MEL-5 melanoma = tested on: SK-MEL-5 melanoma
SK-OV-3 ovarian = tested on: SK-OV-3 ovarian
SN12C renal = tested on: SN12C renal
SNB-19 CNS = tested on: SNB-19 CNS
SNB-75 CNS = tested on: SNB-75 CNS
SR leukemia = tested on: SR leukemia
SW-620 colon = tested on: SW-620 colon
TK-10 renal = tested on: TK-10 renal
U251 CNS = tested on: U251 CNS
UACC-257 melanoma = tested on: UACC-257 melanoma
UACC-62 melanoma = tested on: UACC-62 melanoma
UO-31 renal = tested on: UO-31 renal
XF 498 CNS = tested on: XF 498 CNS

Work on `CC(=O)[CH-]C(C)=O.[CH2-]C.[CH2-]C.[Tl+3]` yielded a GI50 (786-0 renal) greater than 100 µM, a TGI (786-0 renal) greater than 100 µM and a GI50 (A498 renal) greater than 100 µM. The TGI (A498 renal) was greater than 100 µM, the GI50 (A549 NSCLC) was greater than 100 µM and the TGI (A549 NSCLC) was greater than 100 µM. The GI50 (ACHN renal) was greater than 100 µM, the TGI (ACHN renal) was greater than 100 µM and the GI50 (CAKI-1 renal) was greater than 100 µM. It also gave a TGI (CAKI-1 renal) greater than 100 µM, a GI50 (CCRF-CEM leukemia) greater than 100 µM and a TGI (CCRF-CEM leukemia) greater than 100 µM. The GI50 (COLO 205 colon) was greater than 100 µM, the TGI (COLO 205 colon) was greater than 100 µM and the GI50 (DLD-1 colon) was greater than 100 µM. It also gave a TGI (DLD-1 colon) greater than 100 µM, a GI50 (DMS 114 small cell lung) greater than 100 µM and a TGI (DMS 114 small cell lung) greater than 100 µM. For the same compound, the GI50 (DMS 273 small cell lung) was greater than 100 µM, the TGI (DMS 273 small cell lung) was greater than 100 µM and the GI50 (EKVX NSCLC) was greater than 100 µM. For the same compound, the TGI (EKVX NSCLC) was greater than 100 µM, the GI50 (HCC-2998 colon) was greater than 100 µM and the TGI (HCC-2998 colon) was greater than 100 µM. It also gave a GI50 (HCT-116 colon) greater than 100 µM, a TGI (HCT-116 colon) greater than 100 µM and a GI50 (HCT-15 colon) greater than 100 µM. It also gave a TGI (HCT-15 colon) greater than 100 µM, a GI50 (HL-60(TB) leukemia) greater than 100 µM and a TGI (HL-60(TB) leukemia) greater than 100 µM. For the same compound, the GI50 (HOP-18 NSCLC) was greater than 100 µM, the TGI (HOP-18 NSCLC) was greater than 100 µM and the GI50 (HOP-62 NSCLC) was greater than 100 µM. It also gave a TGI (HOP-62 NSCLC) greater than 100 µM, a GI50 (HOP-92 NSCLC) greater than 100 µM and a TGI (HOP-92 NSCLC) greater than 100 µM. For the same compound, the GI50 (HT29 colon) was greater than 100 µM, the TGI (HT29 colon) was greater than 100 µM and the GI50 (IGROV1 ovarian) was greater than 100 µM. The TGI (IGROV1 ovarian) was greater than 100 µM, the GI50 (K-562 leukemia) was greater than 100 µM and the TGI (K-562 leukemia) was greater than 100 µM. The GI50 (KM12 colon) was greater than 100 µM, the TGI (KM12 colon) was greater than 100 µM and the GI50 (KM20L2 colon) was greater than 100 µM. For the same compound, the TGI (KM20L2 colon) was greater than 100 µM, the GI50 (LOX IMVI melanoma) was greater than 100 µM and the TGI (LOX IMVI melanoma) was greater than 100 µM. It also gave a GI50 (LXFL 529 NSCLC) greater than 100 µM, a TGI (LXFL 529 NSCLC) greater than 100 µM and a GI50 (M14 melanoma) greater than 100 µM. For the same compound, the TGI (M14 melanoma) was greater than 100 µM, the GI50 (MALME-3M melanoma) was greater than 100 µM and the TGI (MALME-3M melanoma) was greater than 100 µM. It also gave a GI50 (MOLT-4 leukemia) greater than 100 µM, a TGI (MOLT-4 leukemia) greater than 100 µM and a GI50 (NCI-H226 lung) greater than 100 µM. It also gave a TGI (NCI-H226 lung) greater than 100 µM, a GI50 (NCI-H23 lung) greater than 100 µM and a TGI (NCI-H23 lung) greater than 100 µM. It also gave a GI50 (NCI-H460 lung) greater than 100 µM, a TGI (NCI-H460 lung) greater than 100 µM and a GI50 (NCI-H522 lung) greater than 100 µM. The TGI (NCI-H522 lung) was greater than 100 µM, the GI50 (OVCAR-3 ovarian) was greater than 100 µM and the TGI (OVCAR-3 ovarian) was greater than 100 µM. It also gave a GI50 (OVCAR-4 ovarian) greater than 100 µM, a TGI (OVCAR-4 ovarian) greater than 100 µM and a GI50 (OVCAR-5 ovarian) greater than 100 µM. For the same compound, the TGI (OVCAR-5 ovarian) was greater than 100 µM, the GI50 (OVCAR-8 ovarian) was greater than 100 µM and the TGI (OVCAR-8 ovarian) was greater than 100 µM. It also gave a GI50 (RPMI-8226 leukemia) greater than 100 µM, a TGI (RPMI-8226 leukemia) greater than 100 µM and a GI50 (RXF 393 renal) greater than 100 µM. For the same compound, the TGI (RXF 393 renal) was greater than 100 µM, the GI50 (SF-268 CNS) was greater than 100 µM and the TGI (SF-268 CNS) was greater than 100 µM. It also gave a GI50 (SF-295 CNS) greater than 100 µM, a TGI (SF-295 CNS) greater than 100 µM and a GI50 (SF-539 CNS) greater than 100 µM. The TGI (SF-539 CNS) was greater than 100 µM, the GI50 (SK-MEL-2 melanoma) was greater than 100 µM and the TGI (SK-MEL-2 melanoma) was greater than 100 µM. It also gave a GI50 (SK-MEL-28 melanoma) greater than 100 µM, a TGI (SK-MEL-28 melanoma) greater than 100 µM and a GI50 (SK-MEL-5 melanoma) greater than 100 µM. For the same compound, the TGI (SK-MEL-5 melanoma) was greater than 100 µM, the GI50 (SK-OV-3 ovarian) was greater than 100 µM and the TGI (SK-OV-3 ovarian) was greater than 100 µM. It also gave a GI50 (SN12C renal) greater than 100 µM, a TGI (SN12C renal) greater than 100 µM and a GI50 (SNB-19 CNS) greater than 100 µM. It also gave a TGI (SNB-19 CNS) greater than 100 µM, a GI50 (SNB-75 CNS) greater than 100 µM and a TGI (SNB-75 CNS) greater than 100 µM. The GI50 (SR leukemia) was greater than 100 µM, the TGI (SR leukemia) was greater than 100 µM and the GI50 (SW-620 colon) was greater than 100 µM. For the same compound, the TGI (SW-620 colon) was greater than 100 µM, the GI50 (TK-10 renal) was greater than 100 µM and the TGI (TK-10 renal) was greater than 100 µM. The GI50 (U251 CNS) was greater than 100 µM, the TGI (U251 CNS) was greater than 100 µM and the GI50 (UACC-257 melanoma) was greater than 100 µM. It also gave a TGI (UACC-257 melanoma) greater than 100 µM, a GI50 (UACC-62 melanoma) greater than 100 µM and a TGI (UACC-62 melanoma) greater than 100 µM. The GI50 (UO-31 renal) was greater than 100 µM, the TGI (UO-31 renal) was greater than 100 µM and the GI50 (XF 498 CNS) was greater than 100 µM. For the same compound, the TGI (XF 498 CNS) was greater than 100 µM.
